Measurements: patent US20160038468A1 (priority 2013, published 2016)
In brackets after ≈: the same amount, converted by molar mass. Where two headings read alike, the source gives them in different places.

Key:
Format in all cases: cell-based
Anaerococcus tetradius = assay: Agar dilution MIC (CLSI), Anaerococcus tetradius vaginal isolates; conditions: for MIC: read-out: Minimal Inhibitory Concentration (MIC); for Number of strains with indicated MIC: 21 samples
Prevotella bivia = assay: Agar dilution MIC (CLSI), Prevotella bivia vaginal isolates; conditions: for Number of strains with indicated MIC: 34 samples; for MIC: read-out: Minimal Inhibitory Concentration (MIC)
Gardnerella vaginalis = assay: Agar dilution MIC (CLSI), Gardnerella vaginalis vaginal isolates; conditions: for Number of strains with indicated MIC: 100 samples
[1] = Anaerococcus tetradius, # tested 21
[2] = Gardnerella vaginalis, # tested 107

`CCC[C@@H]1C[C@@H](C(=O)N[C@@H]([C@H]2O[C@H](SC)[C@H](O)[C@@H](O)[C@H]2O)[C@H](C)Cl)N(C)C1` [Clindamycin] showed an MIC (Anaerococcus tetradius; Anaerococcus tetradius, isolate 601305V J) of 2 µg/mL (≈ 4.71 µM), an MIC (Anaerococcus tetradius; Anaerococcus tetradius, isolate 601326V H) of 2 µg/mL (≈ 4.71 µM) and an MIC (Anaerococcus tetradius; Anaerococcus tetradius, isolate 601340V 25) of 2 µg/mL (≈ 4.71 µM). It also gave an MIC (Anaerococcus tetradius; Anaerococcus tetradius, isolate 601342V N) of 2 µg/mL (≈ 4.71 µM), an MIC (Anaerococcus tetradius; Anaerococcus tetradius, isolate 601368V 42) of 2 µg/mL (≈ 4.71 µM) and an MIC (Anaerococcus tetradius; Anaerococcus tetradius, isolate 601369V 12) of 2 µg/mL (≈ 4.71 µM). For the same compound, the MIC (Anaerococcus tetradius; Anaerococcus tetradius, isolate 601401V T) was 8 µg/mL (≈ 18.8 µM), the MIC (Anaerococcus tetradius; Anaerococcus tetradius, isolate 601429V 15) was 2 µg/mL (≈ 4.71 µM) and the MIC (Anaerococcus tetradius; Anaerococcus tetradius, isolate 601450V 22) was 1 µg/mL (≈ 2.35 µM). It also gave an MIC (Anaerococcus tetradius; Anaerococcus tetradius) greater than 128 µg/mL, an MIC50 (Anaerococcus tetradius; [1]) of 2 µg/mL (≈ 4.71 µM) and an MIC90 (Anaerococcus tetradius; [1]) greater than 128 µg/mL. The “Number of strains with indicated MIC” value (Anaerococcus tetradius; MIC 0.03 μg/ml) was 1, the “Number of strains with indicated MIC” value (Anaerococcus tetradius; MIC 8 μg/ml) was 1 and the “Number of strains with indicated MIC” value (Anaerococcus tetradius; MIC >[…]) was 3. The “Number of strains with indicated MIC” value (Anaerococcus tetradius; MIC […]) was 1, the “Minimal Inhibitory Concentration (MIC)” value (Anaerococcus tetradius; isolate 601379V 25) was greater than 128 µg/mL and the “Minimal Inhibitory Concentration (MIC)” value (Anaerococcus tetradius; isolate 602375V 22) was greater than 128 µg/mL. For the same compound, the “Number of strains with indicated MIC” value (Prevotella bivia; MIC 0.03 μg/ml) was 8, the “Number of strains with indicated MIC” value (Prevotella bivia; MIC 0.06 μg/ml) was 1 and the “Number of strains with indicated MIC” value (Prevotella bivia; MIC >[…]) was 25. For the same compound, the MIC (Prevotella bivia; Prevotella bivia, isolate 601203 5) was 0.03 µg/mL (≈ 0.0706 µM), the MIC (Prevotella bivia; Prevotella bivia, isolate 601212 9) was 0.03 µg/mL (≈ 0.0706 µM) and the MIC (Prevotella bivia; Prevotella bivia, isolate 601293 22) was 0.03 µg/mL (≈ 0.0706 µM). For the same compound, the MIC (Prevotella bivia; Prevotella bivia, isolate 601355 B) was 0.06 µg/mL (≈ 0.141 µM), the MIC (Prevotella bivia; Prevotella bivia, isolate 601367 M) was 0.03 µg/mL (≈ 0.0706 µM) and the MIC (Prevotella bivia; Prevotella bivia, isolate 601388 T) was 0.03 µg/mL (≈ 0.0706 µM). For the same compound, the MIC (Prevotella bivia; Prevotella bivia, isolate 601389 J) was 0.03 µg/mL (≈ 0.0706 µM), the MIC (Prevotella bivia; Prevotella bivia, isolate 601409 V) was 0.03 µg/mL (≈ 0.0706 µM) and the MIC (Prevotella bivia; Prevotella bivia, isolate 601410 12) was 0.03 µg/mL (≈ 0.0706 µM). The MIC (Prevotella bivia; Prevotella bivia) was greater than 128 µg/mL, the MIC50 (Prevotella bivia; Prevotella bivia, # tested 34) was greater than 128 µg/mL and the MIC90 (Prevotella bivia; Prevotella bivia, # tested 34) was greater than 128 µg/mL. The “Minimal Inhibitory Concentration (MIC)” value (Prevotella bivia; isolate 601096 25) was greater than 128 µg/mL, the “Minimal Inhibitory Concentration (MIC)” value (Prevotella bivia; isolate 601166 M) was greater than 128 µg/mL and the “Minimal Inhibitory Concentration (MIC)” value (Prevotella bivia; isolate 601202 21) was greater than 128 µg/mL. For the same compound, the “Minimal Inhibitory Concentration (MIC)” value (Prevotella bivia; isolate 601213 9A) was greater than 128 µg/mL, the “Minimal Inhibitory Concentration (MIC)” value (Prevotella bivia; isolate 601214 B) was greater than 128 µg/mL and the “Minimal Inhibitory Concentration (MIC)” value (Prevotella bivia; isolate 601241 13) was greater than 128 µg/mL. For the same compound, the “Minimal Inhibitory Concentration (MIC)” value (Prevotella bivia; isolate 601243 15) was greater than 128 µg/mL, the “Minimal Inhibitory Concentration (MIC)” value (Prevotella bivia; isolate 601255 10) was greater than 128 µg/mL and the “Minimal Inhibitory Concentration (MIC)” value (Prevotella bivia; isolate 601261 C) was greater than 128 µg/mL. The “Minimal Inhibitory Concentration (MIC)” value (Prevotella bivia; isolate 601283 20) was greater than 128 µg/mL, the “Minimal Inhibitory Concentration (MIC)” value (Prevotella bivia; isolate 601285 14) was greater than 128 µg/mL and the “Minimal Inhibitory Concentration (MIC)” value (Prevotella bivia; isolate 601305 H) was greater than 128 µg/mL. For the same compound, the “Minimal Inhibitory Concentration (MIC)” value (Prevotella bivia; isolate 601340 31) was greater than 128 µg/mL, the “Minimal Inhibitory Concentration (MIC)” value (Prevotella bivia; isolate 601374 A1) was greater than 128 µg/mL and the “Minimal Inhibitory Concentration (MIC)” value (Prevotella bivia; isolate 601378 B) was greater than 128 µg/mL. For the same compound, the “Minimal Inhibitory Concentration (MIC)” value (Prevotella bivia; isolate 601379 19) was greater than 128 µg/mL, the “Minimal Inhibitory Concentration (MIC)” value (Prevotella bivia; isolate 601389 10) was greater than 128 µg/mL and the “Minimal Inhibitory Concentration (MIC)” value (Prevotella bivia; isolate 601392 14) was greater than 128 µg/mL. For the same compound, the “Minimal Inhibitory Concentration (MIC)” value (Prevotella bivia; isolate 601429 1) was greater than 128 µg/mL, the “Minimal Inhibitory Concentration (MIC)” value (Prevotella bivia; isolate 601433 19) was greater than 128 µg/mL and the “Minimal Inhibitory Concentration (MIC)” value (Prevotella bivia; isolate 601449 E) was greater than 128 µg/mL. For the same compound, the “Minimal Inhibitory Concentration (MIC)” value (Prevotella bivia; isolate 601453 A) was greater than 128 µg/mL, the “Minimal Inhibitory Concentration (MIC)” value (Prevotella bivia; isolate 601455 D1) was greater than 128 µg/mL and the “Minimal Inhibitory Concentration (MIC)” value (Prevotella bivia; isolate 601458 16) was greater than 128 µg/mL. The Susceptible (Prevotella bivia; number (%) of isolates, # tested 34) was 9 (26) μg/ml, the Resistant (Prevotella bivia; number (%) of isolates, # tested 34, resistance: rifaximin >32, metronidazole >32, clindamycin >8 μg/ml) was 25 (74) μg/ml and the “MIC Range” value (Gardnerella vaginalis; # tested 107) was 0.015 to 0.5 µg/mL. The MIC50 (Gardnerella vaginalis; [2]) was 0.125 µg/mL (≈ 0.294 µM), the MIC90 (Gardnerella vaginalis; [2]) was 0.25 µg/mL (≈ 0.588 µM) and the “Number of strains with indicated MIC” value (Gardnerella vaginalis; MIC 0.015 μg/ml) was 1. The “Number of strains with indicated MIC” value (Gardnerella vaginalis; MIC 0.03 μg/ml) was 11, the “Number of strains with indicated MIC” value (Gardnerella vaginalis; MIC 0.06 μg/ml) was 25 and the “Number of strains with indicated MIC” value (Gardnerella vaginalis; MIC […] μg/ml) was 1.
